These results are taken from ChEMBL document CHEMBL5291721, “A preclinical secondary pharmacology resource illuminates target-adverse drug reaction associations of marketed drugs” (Nat Commun, 2023).

In experiment [1] the target is T1, Amine oxidase [flavin-containing] A (Homo sapiens, UniProt P21397).
T1 sequence (P21397 whole entry): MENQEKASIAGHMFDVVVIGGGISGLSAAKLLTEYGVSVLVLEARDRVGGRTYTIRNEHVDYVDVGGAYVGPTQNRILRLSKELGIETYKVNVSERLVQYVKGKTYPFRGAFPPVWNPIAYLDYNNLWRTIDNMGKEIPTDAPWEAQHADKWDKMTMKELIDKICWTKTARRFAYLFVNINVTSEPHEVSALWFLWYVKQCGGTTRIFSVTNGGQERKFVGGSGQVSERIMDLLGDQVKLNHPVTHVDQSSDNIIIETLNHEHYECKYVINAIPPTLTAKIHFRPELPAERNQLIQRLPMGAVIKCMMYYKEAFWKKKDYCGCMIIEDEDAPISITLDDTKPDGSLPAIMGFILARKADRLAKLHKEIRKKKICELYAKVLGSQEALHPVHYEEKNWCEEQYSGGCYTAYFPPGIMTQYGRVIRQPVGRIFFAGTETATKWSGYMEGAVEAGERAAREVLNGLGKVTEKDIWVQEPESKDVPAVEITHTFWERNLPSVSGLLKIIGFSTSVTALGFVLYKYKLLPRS
Format: functional.

For experiment [2], the target named is Beta-2 adrenergic receptor (Homo sapiens, UniProt P07550). Format: functional, cell-based.
Experiment [3] addresses 5-hydroxytryptamine receptor 2A (Homo sapiens, UniProt P28223). Format: functional, cell-based.
Experiment [4] addresses T2, Endothelin-1 receptor (Homo sapiens, UniProt P25101).
T2 sequence (P25101 whole entry): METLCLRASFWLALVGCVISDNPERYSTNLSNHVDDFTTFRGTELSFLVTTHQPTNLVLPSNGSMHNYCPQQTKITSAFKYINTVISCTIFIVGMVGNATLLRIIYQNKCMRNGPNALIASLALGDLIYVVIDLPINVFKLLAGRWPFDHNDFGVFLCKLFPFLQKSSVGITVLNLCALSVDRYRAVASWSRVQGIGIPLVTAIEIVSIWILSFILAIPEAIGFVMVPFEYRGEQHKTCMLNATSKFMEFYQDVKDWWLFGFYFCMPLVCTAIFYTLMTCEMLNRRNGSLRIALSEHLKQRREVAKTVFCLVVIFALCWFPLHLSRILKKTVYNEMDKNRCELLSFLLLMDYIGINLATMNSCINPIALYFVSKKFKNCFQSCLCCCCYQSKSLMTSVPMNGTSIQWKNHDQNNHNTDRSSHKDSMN

Experiment [5] deals with T3, Alpha-1A adrenergic receptor (Homo sapiens, UniProt P35348).
T3 sequence (P35348 whole entry): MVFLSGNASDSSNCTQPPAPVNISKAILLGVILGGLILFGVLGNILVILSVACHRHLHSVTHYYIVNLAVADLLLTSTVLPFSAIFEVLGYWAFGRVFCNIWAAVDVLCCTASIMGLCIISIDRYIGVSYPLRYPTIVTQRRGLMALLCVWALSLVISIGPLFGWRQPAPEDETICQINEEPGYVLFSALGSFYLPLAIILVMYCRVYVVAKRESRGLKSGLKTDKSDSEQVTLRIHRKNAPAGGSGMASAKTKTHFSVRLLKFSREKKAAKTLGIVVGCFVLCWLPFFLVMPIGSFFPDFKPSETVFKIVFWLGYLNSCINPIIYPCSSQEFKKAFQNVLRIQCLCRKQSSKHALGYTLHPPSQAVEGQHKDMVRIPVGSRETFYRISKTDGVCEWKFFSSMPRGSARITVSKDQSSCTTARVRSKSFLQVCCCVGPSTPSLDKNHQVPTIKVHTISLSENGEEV

Experiment [6] concerns the target Kappa-type opioid receptor (Homo sapiens, UniProt P41145).
The target in experiment [7] is Neuronal acetylcholine receptor subunit alpha-4 (Homo sapiens, UniProt P43681).
Experiment [8] concerns the target T3, Alpha-1A adrenergic receptor. In kind it is functional, cell-based.
Experiment [9] has as its target T4, Mu-type opioid receptor (Homo sapiens, UniProt P35372). Description: biochemical. In kind it is functional.
Experiment [10] has as its target T3, Alpha-1A adrenergic receptor. Format: functional, cell-based. The source holds these as a separate data set.
Experiment [11] addresses T5, Neuropeptide Y receptor type 1 (Homo sapiens, UniProt P25929).
T5 sequence (P25929 whole entry): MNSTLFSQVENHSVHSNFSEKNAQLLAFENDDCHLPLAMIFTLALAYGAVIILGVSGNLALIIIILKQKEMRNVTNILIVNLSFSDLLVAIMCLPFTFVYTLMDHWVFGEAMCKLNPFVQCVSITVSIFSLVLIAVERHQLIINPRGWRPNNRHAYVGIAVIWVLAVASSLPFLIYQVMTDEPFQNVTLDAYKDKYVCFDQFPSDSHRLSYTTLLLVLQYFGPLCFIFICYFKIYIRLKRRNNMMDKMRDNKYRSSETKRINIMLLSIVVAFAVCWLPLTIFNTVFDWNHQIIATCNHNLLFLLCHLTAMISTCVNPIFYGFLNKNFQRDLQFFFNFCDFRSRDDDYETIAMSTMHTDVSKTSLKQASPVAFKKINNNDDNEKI

Experiment [12] addresses Sodium-dependent dopamine transporter (Homo sapiens, UniProt Q01959).
The target in experiment [13] is Histamine H1 receptor (Homo sapiens, UniProt P35367).
Experiment [14] concerns the target T6, 5-hydroxytryptamine receptor 1A (Homo sapiens, UniProt P08908).
T6 sequence (P08908 whole entry): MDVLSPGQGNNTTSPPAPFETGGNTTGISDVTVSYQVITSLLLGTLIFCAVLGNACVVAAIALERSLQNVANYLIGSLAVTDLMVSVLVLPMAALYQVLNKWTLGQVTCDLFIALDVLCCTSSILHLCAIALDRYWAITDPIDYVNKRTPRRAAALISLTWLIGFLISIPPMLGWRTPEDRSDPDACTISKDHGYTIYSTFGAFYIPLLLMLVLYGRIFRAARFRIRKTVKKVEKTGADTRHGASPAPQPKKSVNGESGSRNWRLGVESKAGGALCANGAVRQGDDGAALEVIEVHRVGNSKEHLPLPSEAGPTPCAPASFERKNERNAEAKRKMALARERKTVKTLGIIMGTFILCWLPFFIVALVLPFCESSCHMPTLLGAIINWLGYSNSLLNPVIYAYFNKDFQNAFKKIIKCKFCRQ
In kind it is functional, cell-based.

Experiment [15] has as its target Cannabinoid receptor 1 (Homo sapiens, UniProt P21554).
Experiment [16] concerns the target T4, Mu-type opioid receptor.

One may read the AC50 as the midpoint of the concentration-response curve, whichever way the signal moves. Read a high AC50 as weaker potency.

Sequence of Neuronal acetylcholine receptor subunit alpha-4 (P43681 whole entry): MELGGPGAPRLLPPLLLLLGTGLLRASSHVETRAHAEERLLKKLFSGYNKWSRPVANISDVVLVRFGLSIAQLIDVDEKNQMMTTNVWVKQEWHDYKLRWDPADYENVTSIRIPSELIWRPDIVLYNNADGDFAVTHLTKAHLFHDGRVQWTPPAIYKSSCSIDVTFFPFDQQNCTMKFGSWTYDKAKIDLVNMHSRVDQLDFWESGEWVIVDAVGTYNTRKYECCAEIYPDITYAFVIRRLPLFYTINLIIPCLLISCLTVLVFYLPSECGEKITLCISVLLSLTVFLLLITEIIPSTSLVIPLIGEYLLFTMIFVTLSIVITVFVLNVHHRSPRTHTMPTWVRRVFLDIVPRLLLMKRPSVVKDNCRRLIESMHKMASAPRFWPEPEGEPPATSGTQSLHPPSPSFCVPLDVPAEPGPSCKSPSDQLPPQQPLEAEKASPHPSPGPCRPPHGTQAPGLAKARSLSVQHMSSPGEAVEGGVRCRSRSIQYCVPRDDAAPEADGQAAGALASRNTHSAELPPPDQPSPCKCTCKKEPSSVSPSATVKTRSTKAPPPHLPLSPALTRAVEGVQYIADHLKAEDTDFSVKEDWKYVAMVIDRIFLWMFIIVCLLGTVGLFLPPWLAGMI
Sequence of 5-hydroxytryptamine receptor 2A (P28223 whole entry): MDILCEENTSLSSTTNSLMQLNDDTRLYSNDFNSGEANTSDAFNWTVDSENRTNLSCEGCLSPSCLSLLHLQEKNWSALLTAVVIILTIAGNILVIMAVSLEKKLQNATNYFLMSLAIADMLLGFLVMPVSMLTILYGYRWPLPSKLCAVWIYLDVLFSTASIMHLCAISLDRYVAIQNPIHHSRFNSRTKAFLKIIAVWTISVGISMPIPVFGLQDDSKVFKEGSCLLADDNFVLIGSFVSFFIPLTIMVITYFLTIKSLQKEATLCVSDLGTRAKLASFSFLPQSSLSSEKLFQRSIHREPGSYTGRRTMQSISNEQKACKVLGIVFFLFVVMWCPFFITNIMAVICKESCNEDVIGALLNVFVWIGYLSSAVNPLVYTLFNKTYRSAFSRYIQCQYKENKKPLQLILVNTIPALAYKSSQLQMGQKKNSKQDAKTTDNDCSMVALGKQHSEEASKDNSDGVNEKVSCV
Sequence of Beta-2 adrenergic receptor (P07550 whole entry): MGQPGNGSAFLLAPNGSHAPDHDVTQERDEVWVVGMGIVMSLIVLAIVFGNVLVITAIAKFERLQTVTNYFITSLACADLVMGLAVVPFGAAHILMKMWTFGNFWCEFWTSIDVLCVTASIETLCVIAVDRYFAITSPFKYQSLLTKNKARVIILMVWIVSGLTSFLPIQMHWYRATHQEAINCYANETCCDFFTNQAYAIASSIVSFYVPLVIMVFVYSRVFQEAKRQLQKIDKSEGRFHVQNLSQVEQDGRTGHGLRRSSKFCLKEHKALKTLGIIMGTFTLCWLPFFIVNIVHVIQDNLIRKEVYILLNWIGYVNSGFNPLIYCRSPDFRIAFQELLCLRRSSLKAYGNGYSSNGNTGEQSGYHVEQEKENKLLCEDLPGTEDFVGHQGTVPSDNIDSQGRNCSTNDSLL
Sequence of Sodium-dependent dopamine transporter (Q01959 whole entry): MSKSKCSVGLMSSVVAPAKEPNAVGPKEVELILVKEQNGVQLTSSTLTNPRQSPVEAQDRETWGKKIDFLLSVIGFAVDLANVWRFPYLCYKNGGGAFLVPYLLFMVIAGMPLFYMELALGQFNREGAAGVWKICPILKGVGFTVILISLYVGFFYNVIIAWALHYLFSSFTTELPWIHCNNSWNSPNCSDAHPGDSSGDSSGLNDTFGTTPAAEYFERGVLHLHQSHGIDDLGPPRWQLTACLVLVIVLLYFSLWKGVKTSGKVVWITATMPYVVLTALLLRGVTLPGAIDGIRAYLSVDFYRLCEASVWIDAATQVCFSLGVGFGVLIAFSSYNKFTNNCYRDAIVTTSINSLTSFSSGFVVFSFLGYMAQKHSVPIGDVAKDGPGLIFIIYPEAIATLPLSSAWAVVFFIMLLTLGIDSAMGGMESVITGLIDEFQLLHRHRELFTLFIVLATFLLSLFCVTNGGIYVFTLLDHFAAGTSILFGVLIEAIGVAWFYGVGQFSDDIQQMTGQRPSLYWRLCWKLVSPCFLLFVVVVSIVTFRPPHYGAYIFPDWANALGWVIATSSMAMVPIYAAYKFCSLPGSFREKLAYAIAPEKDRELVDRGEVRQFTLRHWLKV
T4 sequence (P35372 whole entry): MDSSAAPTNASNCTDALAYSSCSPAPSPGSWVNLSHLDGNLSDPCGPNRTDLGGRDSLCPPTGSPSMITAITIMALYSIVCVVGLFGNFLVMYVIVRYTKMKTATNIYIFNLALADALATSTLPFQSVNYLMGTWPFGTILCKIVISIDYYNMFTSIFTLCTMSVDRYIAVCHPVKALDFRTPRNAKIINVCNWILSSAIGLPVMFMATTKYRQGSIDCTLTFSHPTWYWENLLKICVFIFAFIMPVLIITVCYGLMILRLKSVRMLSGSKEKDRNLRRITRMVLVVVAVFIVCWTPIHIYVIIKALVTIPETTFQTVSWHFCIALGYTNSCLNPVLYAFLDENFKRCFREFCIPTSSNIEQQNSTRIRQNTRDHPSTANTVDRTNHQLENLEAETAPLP
Sequence of Kappa-type opioid receptor (P41145 whole entry): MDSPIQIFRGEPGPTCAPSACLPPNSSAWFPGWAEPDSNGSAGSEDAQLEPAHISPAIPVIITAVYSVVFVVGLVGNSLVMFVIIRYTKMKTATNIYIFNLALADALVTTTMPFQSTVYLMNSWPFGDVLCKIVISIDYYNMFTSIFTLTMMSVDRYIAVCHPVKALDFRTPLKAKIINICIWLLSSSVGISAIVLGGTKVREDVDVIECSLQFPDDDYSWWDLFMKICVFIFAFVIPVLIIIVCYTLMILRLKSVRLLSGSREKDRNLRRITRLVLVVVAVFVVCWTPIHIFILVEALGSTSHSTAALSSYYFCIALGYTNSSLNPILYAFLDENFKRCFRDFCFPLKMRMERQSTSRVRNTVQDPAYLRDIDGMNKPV
Sequence of Histamine H1 receptor (P35367 whole entry): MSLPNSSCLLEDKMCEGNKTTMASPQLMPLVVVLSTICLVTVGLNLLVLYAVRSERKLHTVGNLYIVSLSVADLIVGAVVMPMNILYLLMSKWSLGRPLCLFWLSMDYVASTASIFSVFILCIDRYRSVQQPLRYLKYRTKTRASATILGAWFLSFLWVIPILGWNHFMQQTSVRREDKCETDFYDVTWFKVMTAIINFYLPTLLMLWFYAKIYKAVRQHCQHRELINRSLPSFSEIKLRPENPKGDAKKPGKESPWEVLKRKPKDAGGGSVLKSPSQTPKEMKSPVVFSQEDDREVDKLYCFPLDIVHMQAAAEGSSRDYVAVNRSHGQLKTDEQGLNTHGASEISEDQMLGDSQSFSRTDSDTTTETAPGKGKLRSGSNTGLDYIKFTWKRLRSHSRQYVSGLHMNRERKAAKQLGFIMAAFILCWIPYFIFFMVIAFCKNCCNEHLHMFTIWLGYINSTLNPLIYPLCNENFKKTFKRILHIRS
Sequence of Cannabinoid receptor 1 (P21554 whole entry): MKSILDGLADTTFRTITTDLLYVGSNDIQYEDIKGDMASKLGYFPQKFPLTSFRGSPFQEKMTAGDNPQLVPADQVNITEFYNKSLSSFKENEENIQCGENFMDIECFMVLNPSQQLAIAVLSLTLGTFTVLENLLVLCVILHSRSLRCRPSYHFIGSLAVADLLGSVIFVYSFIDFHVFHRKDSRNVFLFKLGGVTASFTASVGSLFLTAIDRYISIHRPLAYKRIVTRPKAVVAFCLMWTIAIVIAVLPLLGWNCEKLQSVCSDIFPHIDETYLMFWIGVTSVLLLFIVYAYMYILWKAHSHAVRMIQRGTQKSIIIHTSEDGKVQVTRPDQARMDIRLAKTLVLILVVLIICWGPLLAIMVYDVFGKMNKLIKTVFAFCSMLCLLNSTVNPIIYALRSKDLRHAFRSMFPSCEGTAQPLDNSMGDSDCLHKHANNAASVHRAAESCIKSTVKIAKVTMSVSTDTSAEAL

In the case of `CC(C)N(CCCCOCC(=O)O)c1cnc(-c2ccccc2)c(-c2ccccc2)n1`, the half-maximal activity concentration (AC50) in experiment [1], in [2], in experiment [3], in experiment [4], in [5] and in [6] was greater than 30 µM in each case. Further, the AC50 in experiment [7], in experiment [8], in experiment [9], in experiment [10], in experiment [11] and in [12] was greater than 30 µM in each case. Also, the concentration at half-maximal activity (AC50) in [13] and in [14] was greater than 30 µM in each case.
With `CC(=O)c1ccc(S(=O)(=O)NC(=O)NC2CCCCC2)cc1` [ACETOHEXAMIDE], the concentration at half-maximal activity (AC50) in experiment [1] was greater than 10 µM; in [2], greater than 30 µM; in [3] it was greater than 30 µM; in experiment [5], greater than 10 µM; in [6], greater than 10 µM; in experiment [7], greater than 10 µM. Further, the AC50 in experiment [8] was greater than 30 µM; in experiment [15] it was greater than 10 µM; in experiment [9] it was greater than 30 µM; in experiment [16], greater than 30 µM; in experiment [10], greater than 30 µM; in experiment [11] it was greater than 10 µM. Further, the AC50 in [12], in [13] and in [14] was greater than 10 µM throughout.
On to `CO/N=C(\C(=O)N[C@@H]1C(=O)N2C(C(=O)O)=C(CSc3nc(=O)c(=O)[nH]n3C)CS[C@H]12)c1csc(N)n1` [CEFTRIAXONE], for which the AC50 in experiment [1], in [2], in [3], in experiment [4], in experiment [6] and in experiment [7] was greater than 30 µM throughout. Besides, the half-maximal activity concentration (AC50) in experiment [8], in [9], in experiment [10], in experiment [11], in experiment [12] and in experiment [13] was greater than 30 µM in each case. This compound displayed an AC50 in experiment [14] greater than 30 µM.
Consider `CN1CCN=C(c2ccccc2)c2cc(Cl)ccc21` [MEDAZEPAM], for which the AC50 in experiment [1] is greater than 30 µM; in experiment [2], greater than 30 µM; in experiment [3] it was greater than 30 µM; in [4], greater than 30 µM; in experiment [6], 0.99 µM; in experiment [7], 30 µM. Also, the AC50 is greater than 30 µM in experiment [8]; greater than 30 µM in experiment [9]; 19 µM in experiment [10]; greater than 30 µM in experiment [11]; 22 µM in [12]; greater than 30 µM in [13]. Besides, in experiment [14], the concentration at half-maximal activity (AC50) is greater than 30 µM.
As to `O=c1[nH]c2ccccc2n1CCCN1CCN(C(c2ccccc2)c2ccccc2)CC1` [OXATOMIDE], the AC50 in experiment [1] was greater than 30 µM; in experiment [2], greater than 30 µM; in experiment [3] it was 1.2 µM; in experiment [4] it was greater than 30 µM; in experiment [6], 13 µM; in experiment [7], greater than 30 µM. For the same compound, the AC50 in [8] was greater than 30 µM; in experiment [9], 1.8 µM; in experiment [16], 1.2 µM; in experiment [10] it was 4.1 µM; in experiment [11], greater than 30 µM; in [12] it was 0.9 µM. The compound further displayed a concentration at half-maximal activity (AC50) in [13] of 0.034 µM.
Consider `c1ccc(C2(N3CCCCC3)CCCCC2)cc1` [PHENCYCLIDINE], for which the AC50 in experiment [1], in [2], in [3], in experiment [4], in experiment [6] and in experiment [7] was greater than 30 µM throughout. Also, the half-maximal activity concentration (AC50) in experiment [8] was greater than 30 µM; in [9], greater than 30 µM; in experiment [10] it was greater than 30 µM; in [11] it was greater than 30 µM; in experiment [12], 2.6 µM; in experiment [13] it was greater than 30 µM. For the same compound, in [14], the concentration at half-maximal activity (AC50) was greater than 30 µM.
`CCN1CCCC1CNC(=O)c1cc(S(=O)(=O)CC)ccc1OC` (stereo unspecified) [SULTOPRIDE]: the AC50 in experiment [1], in experiment [2], in [3], in experiment [4], in experiment [6] and in experiment [7] was greater than 30 µM each time. Further, the concentration at half-maximal activity (AC50) in [8], in experiment [9], in experiment [11], in [12], in [13] and in experiment [14] was greater than 30 µM throughout.
`C=CCN1CCc2nc(N)sc2CC1` [TALIPEXOLE]: the half-maximal activity concentration (AC50) in experiment [1] is greater than 30 µM; in experiment [2] it was greater than 30 µM; in experiment [3] it was 24 µM; in experiment [4], greater than 30 µM; in experiment [5] it was greater than 30 µM; in experiment [6] it was 17 µM. Moreover, the AC50 is greater than 30 µM in experiment [7]; 2.5 µM in experiment [8]; greater than 30 µM in experiment [9]; greater than 30 µM in experiment [11]; greater than 30 µM in [12]; 28 µM in [13]. In experiment [14], the concentration at half-maximal activity (AC50) was greater than 30 µM.
